“Also recorded” adds a separate entry of the source.
Columns and labels:
α-galactosidase A (GLA) = α-galactosidase A (GLA) (Homo sapiens (Human), UniProt P06280); assay: Enzyme selectivity assay, α-galactosidase A; format: biochemical; conditions: compound treatments up to 100 μM, pH 4.8
Excerpt: (§1) 4-Methylumbelliferyl β-D-glucopyranoside (4MU-β-Glc), 4-methylumbelliferyl α-D-glucopyranoside, 4-methylumbelliferyl α-D-galactopyranoside, and buffer components were purchased from Sigma-Aldrich (St. Louis, Mo.). The recombinant wild-type GCase enzyme velaglucerase alfa (Vpriv®, Shire Human Genetic Therapies, Inc.), acid α-glucosidase enzyme alglucosidase alfa (Lumizyme®, Genzyme Corporation), α-galactosidase A enzyme agalsidase beta (Fabrazyme®, Genzyme Corporation) were used in activity assays. The GCase activity assay buffer was composed of 50 mM citric acid, 176 mM K2HPO4, and 0.01% Tween-20 at pH5.0, pH 5.9 and pH7.0. A solution of 1 M sodium hydroxide and 1 M glycine (pH 10) was used as the stop solution for all three enzyme activity assays.
(§2) Enzyme Selectivity Assays. The acid α-glucosidase and α-galactosidase A enzyme activity assay methods were similar to the GCase enzyme activity assay above with slight modifications. The buffer for the two enzyme assays consisted of 50 mM citric acid, 176 mM K2HPO4, and 0.01% Tween-20 at pH 4.8. The final enzyme concentrations for acid α-glucosidase and α-galactosidase A were 8 and 1 nM, respectively. The substrate concentrations for these related enzymes were at 0.16 and 0.4 mM, respectively.

wild-type GCase [1] = molecular target: T1, wild-type GCase (Homo sapiens (Human), UniProt P04062); assay: Fluorescent thermal shift assay; format: binding; conditions: pH 5.0, 0.5 to 200 μM
Excerpt: Compounds shown to act as pharmacological chaperones for GCase (or other lysosomal enzymes) also stabilize the enzyme against thermal denaturation. A fluorescent thermal shift assay was developed to evaluate the binding affinity of ligands with protein^30. […] The maximum thermal shift of these compounds corresponded to their inhibitory activity at pH 5.0.
Fluorescence Thermal Shift Analysis^31. A robotic pipeline in the High Throughput Analysis Laboratory (HTAL) was used for protein ligand screening by fluorescence thermal shift (FTS) analysis. The pipeline used a Mosquito robot (TTP Labtech) for protein dispensing and an Echo 550 (Labcyte) to add compounds. Thermal scanning coupled with fluorescence detection was performed on a real-time PCR machine CFX384 (Bio-Rad Laboratories). The assay was run in 384-well PCR plates, using 10 μL citric acid/K2HPO4 buffer (50 mM citric acid, 150 mM K2HPO4, pH 5.0) per well. The assay concentration for protein was 1 μM and that for Sypro Orange (Invitrogen) was 5×. Protein was premixed with Sypro Orange and dispensed to a plate first, and compounds were added. Final concentrations of compounds ranged from 0.5 to 200 μM. Then the plate was sealed with an optical seal, shaken, and centrifuged. The thermal scan was from 10 to 95° C. with a temperature ramp rate of 1.5° C./min. The fluorescence was recorded every 10 sec. Data analysis and report generation were performed using the in-house software excelFTS.

acid α-glucosidase (GAA) = acid α-glucosidase (GAA) (Homo sapiens (Human), UniProt P10253); assay: Enzyme selectivity assay, acid α-glucosidase; format: biochemical; conditions: compound treatments up to 100 μM, pH 4.8
Excerpt: as §1, §2

wild-type GCase [2] = molecular target: T1, wild-type GCase; assay: GCase enzyme activity assay (4MU-β-Glc substrate, no taurocholate); format: biochemical; conditions: for change of inhibitory activity at pH 5.0 and pH 7.0 compared to pH 5.9: both pH conditions
Procedure: In previous studies, high concentrations of taurocholate (4-10 mM) were used to improve the signal in GCase enzyme activity assays^16,27,28. […] Here we describe our modifications of the substituents on the quinazoline ring.
as §1, with “The GCase activity assay buffer was composed of 50 mM citric acid, 176 mM K2HPO4, and 0.01% Tween-20 at pH5.0, pH 5.9 and pH7.0.” left out
GCase Enzyme Activity Assay. The compounds in DMSO solution (0.5 μL/well) were transferred to a black 96-well plate (the final titration started from 100 μM, a 12 or 24-point 2-fold dilution series). […] After 5 min of incubation at room temperature, the enzyme reaction was initiated by the addition of blue substrate (4MU-β-Glc) (33 μL/well). The final concentration of the blue substrate was 1.5 mM. The blue substrate reaction was terminated by the addition of 33 μL/well stop solution (1 M NaOH and 1 M glycine mixture, pH 10) after 30 min of incubation at 37° C. […] The selected compounds were further assayed under pH 5.0 and pH 7.0 to evaluate their selectivity under various pH conditions.

N370S mutant GCase [3] = molecular target: T2, N370S mutant GCase (Homo sapiens (Human), UniProt P04062, N370S); assay: GCase protein levels by Western blot in patient N370S fibroblasts; format: cell-based; conditions: 3-day treatment, 0.2 μM and 2 μM
Procedure: (§3) N370S Cell Culture and Compound Treatment. The N370S fibroblast cell line was obtained from Coriell, GM00372, cultured in DMEM medium (Life Tech) including 1% v/v L-glutamine 200 mM (Life Tech), 1% v/v pen strep (Life Tech), 10% FBS (Life Tech) at 37° C. and 5% CO2 and treated with different compounds at 0.2 μM and 2 μM. After a 3-day treatment, cells were washed with inhibitor free media 3 times and fed with inhibitor free media for 1 day, followed by 1% Triton X-100 lysis buffer to lyse cells. Protein concentrations were measured with a Bradford kit (Thermo), and the GCase activity was determined at pH 5.5.
Western Blot. Proteins were denatured in 20% SDS sample buffer at 100° C. for 10 min; 10% Bis-Tris gel (Life Tech) was used for gels; Trans-Blot Turbo PVDF kit (Bio-Rad) was used for membrane transfer, and Chemidoc MP system (Bio-Rad) was used to analyze the blots.

N370S mutant GCase [4] = molecular target: T2, N370S mutant GCase; assay: GCase activity assay in patient N370S fibroblasts; format: cell-based; conditions: 3-day treatment, activity determined at pH 5.5
Procedure: as §3

GCase = GCase (Homo sapiens (Human), UniProt P04062); assay: Enzyme kinetic assay (Lineweaver-Burk, resorufin β-D-glucopyranoside); format: biochemical; conditions: substrate 30-150 μM, increasing inhibitor concentrations
Procedure: We further tested compounds 4 and 11g by measuring GCase activity at various substrate concentrations (30-150 μM) and in the absence or presence of increasing concentrations of GCase inhibitors.
Enzyme Kinetic Assay. The substrate resorufin β-D-glucopyranoside was diluted to five concentrations, ranging from 30 to 150 μM. Seven concentrations of inhibitors (between 0.5- and 5-fold of IC50 value) and a DMSO control were added to the enzyme solution. The final enzyme concentration was 10 nM to give a linear reaction over 10 min. Enzyme kinetics were measured by the addition of 66 μL of substrate to a 96-well assay plate, followed by 33 μL of enzyme solution (with or without inhibitor) using a dispense module on a Biotek Synergy H1 multi-mode plate reader. The increase in product fluorescence was measured at 1 min intervals for 10 min in the plate reader. The rate of product formation was calculated by converting the fluorescence units to nanomoles of product per minute using a standard curve of the free fluorophore, resorufin.

T1 sequence (P04062 40-536): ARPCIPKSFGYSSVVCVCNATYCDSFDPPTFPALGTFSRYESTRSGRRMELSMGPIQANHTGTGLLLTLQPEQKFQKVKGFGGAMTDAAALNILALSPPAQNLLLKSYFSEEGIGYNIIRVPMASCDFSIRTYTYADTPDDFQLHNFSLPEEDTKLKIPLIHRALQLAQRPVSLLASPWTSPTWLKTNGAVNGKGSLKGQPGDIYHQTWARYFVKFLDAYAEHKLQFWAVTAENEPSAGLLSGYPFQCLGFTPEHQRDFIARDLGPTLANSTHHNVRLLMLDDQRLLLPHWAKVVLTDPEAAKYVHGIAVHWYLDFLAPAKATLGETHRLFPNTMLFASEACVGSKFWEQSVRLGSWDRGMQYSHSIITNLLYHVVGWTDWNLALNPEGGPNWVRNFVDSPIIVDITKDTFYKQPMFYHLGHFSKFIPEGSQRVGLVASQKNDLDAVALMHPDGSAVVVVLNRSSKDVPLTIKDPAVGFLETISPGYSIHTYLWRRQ
T2 sequence (P04062 40-536 N409S): as the sequence (P04062 40-536) above, with N370S counted along it
α-galactosidase A (GLA), sequence (P06280 32-429): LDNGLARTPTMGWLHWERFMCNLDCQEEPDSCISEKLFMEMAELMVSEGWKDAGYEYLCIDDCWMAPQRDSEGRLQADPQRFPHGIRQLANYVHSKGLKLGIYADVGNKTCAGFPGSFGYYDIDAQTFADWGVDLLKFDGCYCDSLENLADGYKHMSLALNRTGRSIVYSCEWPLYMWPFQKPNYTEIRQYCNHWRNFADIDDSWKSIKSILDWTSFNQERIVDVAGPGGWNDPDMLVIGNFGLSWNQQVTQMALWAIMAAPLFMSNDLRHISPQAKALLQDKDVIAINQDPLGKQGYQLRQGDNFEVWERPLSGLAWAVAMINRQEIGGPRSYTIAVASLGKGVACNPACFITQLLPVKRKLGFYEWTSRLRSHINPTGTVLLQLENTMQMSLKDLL
GCase, sequence (P04062 40-536): as the sequence (P04062 40-536) above

Row | α-galactosidase A (GLA) activity (α-galactosidase A (GLA)) | acid α-glucosidase (GAA) activity (acid α-glucosidase (GAA)) | inhibitory activity against GCase (in words) (wild-type GCase [2]) | decrease of inhibitory activity at pH 5.0 compared to pH 5.9 (wild-type GCase [2]; pH 5.0 vs pH 5.9) [fold] | concentration of GCase (protein level, Western blot) (N370S mutant GCase [3]) | change of inhibitory activity at pH 5.0 and pH 7.0 compared to pH 5.9 (wild-type GCase [2]) | GCase activity in patient cells (N370S mutant GCase [4]) | type of inhibition (Km, Vmax) (GCase) | SMILES | stabilization of wild-type GCase / change of GCase melting point (wild-type GCase [1])
1 | not significantly changed | not significantly changed |  |  |  |  |  |  | c1cncc(-c2nc(NC3CCc4ccccc4C3)c3ccccc3n2)c1 (single isomer, unassigned) [Compound 9a] | stabilize wild-type GCase in a dose-dependent manner; also recorded: increased the GCase melting point in a dose-dependent manner
2 |  |  | lost activity |  |  |  |  |  | c1ccc(Nc2nc(-c3cccnc3)nc3ccccc23)cc1 [Compound 8a] | did not change the melting points significantly
3 |  |  |  | 3 |  |  |  |  | c1cncc(-c2nc(N[C@@H]3CCc4ccccc4C3)c3ccccc3n2)c1 [Compound 9b] | stabilize wild-type GCase in a dose-dependent manner; also recorded: increased the GCase melting point in a dose-dependent manner
4 | not significantly changed | not significantly changed |  |  | significantly increased |  |  |  | c1ccc(-c2nc(NC3Cc4ccccc4C3)c3ccccc3n2)cc1 [Compound 11d, N-(2,3-dihydro-1H-inden-2-yl)-2-phenylquinazolin-4-amine] | stabilize wild-type GCase in a dose-dependent manner; also recorded: increased the GCase melting point in a dose-dependent manner
5 | not significantly changed | not significantly changed |  |  | significantly increased | only dropped slightly |  |  | c1csc(-c2nc(NC3Cc4ccccc4C3)c3ccccc3n2)c1 [Compound 11f, N-(2,3-dihydro-1H-inden-2-yl)-2-(thiophen-2-yl)quinazolin-4-amine] | stabilize wild-type GCase in a dose-dependent manner; also recorded: increased the GCase melting point in a dose-dependent manner
6 | not significantly changed | not significantly changed |  |  | significantly increased | only dropped slightly | increased GCase activity | linear mixed inhibition | c1ccc2c(c1)CC(Nc1nc(-c3ccsc3)nc3ccccc13)C2 [Compound 11g, N-(2,3-dihydro-1H-inden-2-yl)-2-(thiophen-3-yl)quinazolin-4-amine] | stabilize wild-type GCase in a dose-dependent manner; also recorded: increased the GCase melting point in a dose-dependent manner
7 |  |  |  |  | did not have an effect |  | had no effect |  | OC[C@H]1CNC[C@@H](O)[C@@H]1O [IFG, Isofagomine, reference compound] | stabilize wild-type GCase in a dose-dependent manner

— patent publication US10501435B2, “Substituted quinazoline compounds and uses thereof for modulating glucocerebrosidase activity” (Northwestern University, priority 2015, dated 2019)
